We go through one compound from patent US20080221132A1, “Multi-Functional Small Molecules as Anti-Proliferative Agents” (priority 2006, published 2008).

The pIC50 is −log10 of the IC50, conventionally taken in molar units. For orientation: inhibition means the drop in the measured response relative to a control, in per cent.

One data set has as its system Lung_H358. Description: Cell proliferation assay (ATPlite), H358. The conditions noted are these: Homo sapiens, NCI-H358; TABLE C; 72 hours, 0.5% fetal bovine serum, ATP content; read-out: IC50 grading, Lung_H358. In kind it is cell-based. How it is done:
(§1) A representative number of compounds were assayed against several different cell lines using the cell proliferation assay:
(§2) Cell Proliferation Assay:
(§3) Cancer cell lines were plated at 5,000 to 10,000 per well in 96-well flatted bottomed plates with various concentration of compounds. The cells were incubated with compounds for 72 hours in the presence of 0.5% of fetal bovine serum. Growth inhibition was accessed by adenosine triphosphate (ATP) content assay using Perkin Elmer ATPlite kit. ATPlite is an ATP monitoring system based on firefly luciferase. Briefly, 25 μl of mammalian cell lysis solution was added to 50 μl of phenol red-free culture medium per well to lyse the cells and stabilize the ATP. 25 μl of substrate solution was then added to the well and subsequently the luminescence was measured.
For orientation: Cellular ATP, detected with luciferase, serves as a proxy for viable cell number.

For the next data set, the system named is Pancreas_BxPC3. Description: Cell proliferation assay (ATPlite), BxPC3. It counts as cell-based. To be noted: Homo sapiens, BXPC-3; TABLE C; 72 hours, 0.5% fetal bovine serum, ATP content; read-out: IC50 grading, Pancreas_BxPC3. How it is done: as §1, §2, §3
The target of the next data set is Ret Kinase (Homo sapiens, UniProt P07949). Description: Kinase panel (TABLE F), Ret Kinase. It counts as biochemical.
Ret Kinase, sequence (P07949 29-1114): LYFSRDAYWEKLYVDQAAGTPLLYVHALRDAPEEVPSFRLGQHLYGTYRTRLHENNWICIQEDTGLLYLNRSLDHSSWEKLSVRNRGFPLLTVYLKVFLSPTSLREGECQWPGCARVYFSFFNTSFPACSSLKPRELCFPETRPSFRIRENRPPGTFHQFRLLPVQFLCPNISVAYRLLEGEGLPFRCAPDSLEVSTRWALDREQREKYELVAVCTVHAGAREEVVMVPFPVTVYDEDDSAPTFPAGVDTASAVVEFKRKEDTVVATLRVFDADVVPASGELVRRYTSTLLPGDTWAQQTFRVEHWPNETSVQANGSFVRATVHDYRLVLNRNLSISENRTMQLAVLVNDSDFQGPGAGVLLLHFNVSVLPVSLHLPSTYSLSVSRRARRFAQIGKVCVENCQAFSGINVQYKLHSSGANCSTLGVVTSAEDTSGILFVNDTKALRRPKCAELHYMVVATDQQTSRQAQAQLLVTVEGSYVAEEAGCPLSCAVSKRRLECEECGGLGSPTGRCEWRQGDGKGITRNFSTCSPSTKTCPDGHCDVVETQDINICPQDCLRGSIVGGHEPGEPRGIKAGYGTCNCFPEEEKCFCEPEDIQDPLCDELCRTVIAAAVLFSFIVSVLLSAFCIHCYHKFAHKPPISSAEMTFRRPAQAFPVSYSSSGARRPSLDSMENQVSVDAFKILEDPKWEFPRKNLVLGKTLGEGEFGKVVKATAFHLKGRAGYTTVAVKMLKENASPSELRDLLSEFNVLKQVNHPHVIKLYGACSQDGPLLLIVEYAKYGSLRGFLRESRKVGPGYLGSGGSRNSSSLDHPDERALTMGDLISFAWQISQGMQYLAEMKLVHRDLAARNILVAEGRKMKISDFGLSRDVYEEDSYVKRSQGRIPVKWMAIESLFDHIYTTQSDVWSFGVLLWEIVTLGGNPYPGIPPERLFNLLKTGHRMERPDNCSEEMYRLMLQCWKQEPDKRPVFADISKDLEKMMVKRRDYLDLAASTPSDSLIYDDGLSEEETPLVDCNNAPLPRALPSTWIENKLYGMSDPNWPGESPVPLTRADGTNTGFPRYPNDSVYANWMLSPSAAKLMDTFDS
A further data set has as its target VEGFR2 Kinase (Homo sapiens, UniProt P35968). Nature of the data set: Kinase panel (TABLE F), VEGFR2 Kinase. In kind it is biochemical.
Data set [1] deals with Prostate_22RV1 (22RV1, prostate carcinoma). Description: Cell proliferation assay (ATPlite), 22RV1. It counts as cell-based. The conditions noted are these: Homo sapiens. How it is done:
as §1, §2
(§4) Cancer cell lines were plated at 5,000 to 10,000 per well in 96-well flatted bottomed plates with various concentration of compounds. […] Growth inhibition was accessed by adenosine triphosphate (ATP) content assay using Perkin Elmer ATPlite kit. ATPlite is an ATP monitoring system based on firefly luciferase. Briefly, 25 μl of mammalian cell lysis solution was added to 50 μl of phenol red-free culture medium per well to lyse the cells and stabilize the ATP. 25 μl of substrate solution was then added to the well and subsequently the luminescence was measured.

Data set [2] relates to Breast_MCF7 (MCF-7, breast adenocarcinoma). Description: Cell proliferation assay (ATPlite), MCF7. It counts as cell-based. To be noted: Homo sapiens, TABLE C, 72 hours, 0.5% fetal bovine serum, ATP content, read-out: IC50 grading, Breast_MCF7. On the procedure:
as §1, §2, §4

For data set [3] the following is noted: both, Sprague Dawley, rat, in vivo, iv, 8 days.
Description: The experimental methods used for the toxicity study below are described as follows:
2. Single dosing MTD in rats • a. Sprague Dawley, male and female, 240-260 gram • b. Dosing at 0, 25, 50, 100, 200 mg/kg, iv infusion 5 min • c. 6 rats per group (3 male and 3 female)
Stock solution is diluted with 30% CAPTISOL before use.
Another data set relates to Lung_H292. Description: Cell proliferation assay (ATPlite), H292. In kind it is cell-based. The conditions noted are these: Homo sapiens, NCI-H292; TABLE C; 72 hours, 0.5% fetal bovine serum, ATP content; read-out: IC50 grading, Lung_H292. On the procedure: as §1, §2, §3
A further data set concerns Pancreas_PANC1. Description: Cell proliferation assay (ATPlite), PANC1. It counts as cell-based. The conditions noted are these: Homo sapiens, PANC-1; TABLE C; 72 hours, 0.5% fetal bovine serum, ATP content; read-out: IC50 grading, Pancreas_PANC1. On the procedure:
as §1, §2, §3

pIC50: −log10 of the molar value. Read-outs that look alike come from different tables or passages of the source.

VEGFR2 Kinase, sequence (P35968 20-1356): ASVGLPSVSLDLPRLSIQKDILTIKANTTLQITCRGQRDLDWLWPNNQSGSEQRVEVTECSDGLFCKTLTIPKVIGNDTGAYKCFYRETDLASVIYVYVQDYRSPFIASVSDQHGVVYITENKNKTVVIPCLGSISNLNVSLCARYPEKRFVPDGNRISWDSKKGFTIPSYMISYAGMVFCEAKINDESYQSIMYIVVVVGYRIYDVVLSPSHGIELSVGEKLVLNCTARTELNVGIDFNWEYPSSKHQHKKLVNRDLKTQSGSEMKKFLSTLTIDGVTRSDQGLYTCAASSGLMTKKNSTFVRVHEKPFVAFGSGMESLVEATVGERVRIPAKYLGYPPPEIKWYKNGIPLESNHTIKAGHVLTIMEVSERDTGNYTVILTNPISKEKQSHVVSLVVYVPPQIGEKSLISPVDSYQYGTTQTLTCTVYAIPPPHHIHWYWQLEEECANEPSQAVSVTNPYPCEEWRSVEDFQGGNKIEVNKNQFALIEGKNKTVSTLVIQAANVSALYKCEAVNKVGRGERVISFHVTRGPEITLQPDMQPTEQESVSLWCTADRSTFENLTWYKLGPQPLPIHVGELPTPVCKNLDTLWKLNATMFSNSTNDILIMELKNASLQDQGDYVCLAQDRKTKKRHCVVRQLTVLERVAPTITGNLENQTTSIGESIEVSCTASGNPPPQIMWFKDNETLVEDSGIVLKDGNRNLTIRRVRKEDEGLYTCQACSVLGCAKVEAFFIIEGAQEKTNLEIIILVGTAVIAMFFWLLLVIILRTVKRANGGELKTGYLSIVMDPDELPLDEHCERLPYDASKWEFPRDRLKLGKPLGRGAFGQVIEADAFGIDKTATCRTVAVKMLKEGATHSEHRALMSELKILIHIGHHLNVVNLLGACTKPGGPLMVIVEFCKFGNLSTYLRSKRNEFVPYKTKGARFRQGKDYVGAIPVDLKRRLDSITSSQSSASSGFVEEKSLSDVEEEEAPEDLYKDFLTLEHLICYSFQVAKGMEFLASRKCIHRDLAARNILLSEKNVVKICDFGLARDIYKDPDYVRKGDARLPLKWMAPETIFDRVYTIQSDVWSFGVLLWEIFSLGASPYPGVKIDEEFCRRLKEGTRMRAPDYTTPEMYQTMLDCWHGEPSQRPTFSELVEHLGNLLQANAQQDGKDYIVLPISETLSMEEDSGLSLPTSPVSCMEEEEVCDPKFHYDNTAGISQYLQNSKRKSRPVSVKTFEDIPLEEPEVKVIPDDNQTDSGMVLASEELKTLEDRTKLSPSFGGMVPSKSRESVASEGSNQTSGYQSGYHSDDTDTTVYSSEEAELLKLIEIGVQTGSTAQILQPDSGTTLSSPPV

With `C#Cc1cccc(Nc2ncnc3cc(OC)c(OCCCCCCC(=O)NO)cc23)c1` [Compound 12], the pIC50 in the data set with Lung_H358 is 6.00 to 7.00; in the data set with Pancreas_BxPC3, greater than 7.00; in data set [1] (TABLE C, 72 hours, 0.5% fetal bovine serum, ATP content, read-out: IC50 grading, Prostate_22RV1), 6.00 to 7.00; in data set [1] (TABLE D, Prostate carcinoma, read-out: IC50 grading, 22RV1) it was 6.30 to 7.30; in data set [2], greater than 7.00; with Lung_H292, greater than 7.00. Also, in the data set with Pancreas_PANC1, the pIC50 was 6.00 to 7.00. The inhibition at 5 µM came out at 93% on Ret Kinase and 64% at VEGFR2 Kinase. Also, the “dose without significant change in body weight” value in data set [3] was “up to 200 mg/kg”.
